Data on 19 compounds can be found in US20250026721A1, “COMPOUNDS AND METHODS FOR MODULATING RAS-PI3K” (Vividion Therapeutics, Inc., priority 2023, published 2025).

For the assay, the target named is T1, PIK3CA_C242 (Homo sapiens, UniProt P42336).
T1 construct: endogenous in cells; host or cells: Jurkat cell lysate
Briefly: Proteomic TE50 (IA-DTB / TMT mass spectrometry) in Jurkat cell lysate. It is filed as binding. To be noted: 1 hour at rt, 7-point dose response. The method, then: Example 4. Proteomic TE50 In vitro TE50 values for PIK3CA_C242 were obtained by treating 500 μg of cell lysate generated from Jurkat cells with DMSO or compound for 1 hour at rt followed by the addition of 200 μM desthiobiotin polyethyleneoxide iodoacetamide (IA-DTB) in DMSO for one hour at rt. Compounds were serially diluted 1:5 for a total of 7 points in order to generate dose response curves. Samples were then precipitated by the addition of 8× ice cold acetone and incubated at -80° C. for two hours. Protein was then pelleted by centrifugation (4,200 RPM, 45 min, 4° C.). The pelleted material was resuspended in 9M urea, 50 mM ammonium bicarbonate and proteins were reduced and alkylated by the addition of DTT and iodoacetamide (10 and 30 mM, respectively). Following reduction and alkylation, samples were exchanged into 2M urea (Zeba spin desalting plates, Thermo Fisher) and digested with Trypsin. IA-DTB labeled peptides were isolated with streptavidin agarose resin. Enriched peptides were eluted by the addition of 50% acetonitrile (ACN) 0.1% formic acid (FA) and dried in a SpeedVac vacuum concentrator. […] Reactions were quenched by the addition of 6.5 μL of 5% hydroxylamine. Samples were then combined and desalted on a Evolute express ABN plate (Biotage, 600-0010-PX01). Targeted TMT measurements were collected using an Orbitrap Lumos Tribrid Mass Spectrometer (Thermo Scientific) coupled to an UltiMate 3000 Series Rapid Separation LC system and autosampler (Thermo Scientific Dionex). Peptides were eluted onto a custom C18 capillary analytical column (75-μm inner diameter fused silica, packed with Acclaim PepMap C18 resin; Thermo Scientific) using an Acclaim PepMap 100 (Thermo 164535) loading column, and separated at a flow rate of […]. Data were acquired using a specific MS3-based TMT method targeting the peptide containing […], +2 charge state) where MS2 peptide fragmentation is triggered upon detection of the peptide precursor ion. Subsequent MS3 analysis was then performed using pre-selected peptide fragment ions that were isolated for fragmentation using synchronous precursor selection. RAW files were converted to MZXML format and searched with the SEQUEST algorithm using the […] software package. TMT quantitation was performed with a filter requiring at least ten summed signal-to-noise (S/N) for control channels. TE50 values were calculated from 7-point dose response curves created using the reporter ion S/N for each channel.

T1 sequence (P42336 whole entry): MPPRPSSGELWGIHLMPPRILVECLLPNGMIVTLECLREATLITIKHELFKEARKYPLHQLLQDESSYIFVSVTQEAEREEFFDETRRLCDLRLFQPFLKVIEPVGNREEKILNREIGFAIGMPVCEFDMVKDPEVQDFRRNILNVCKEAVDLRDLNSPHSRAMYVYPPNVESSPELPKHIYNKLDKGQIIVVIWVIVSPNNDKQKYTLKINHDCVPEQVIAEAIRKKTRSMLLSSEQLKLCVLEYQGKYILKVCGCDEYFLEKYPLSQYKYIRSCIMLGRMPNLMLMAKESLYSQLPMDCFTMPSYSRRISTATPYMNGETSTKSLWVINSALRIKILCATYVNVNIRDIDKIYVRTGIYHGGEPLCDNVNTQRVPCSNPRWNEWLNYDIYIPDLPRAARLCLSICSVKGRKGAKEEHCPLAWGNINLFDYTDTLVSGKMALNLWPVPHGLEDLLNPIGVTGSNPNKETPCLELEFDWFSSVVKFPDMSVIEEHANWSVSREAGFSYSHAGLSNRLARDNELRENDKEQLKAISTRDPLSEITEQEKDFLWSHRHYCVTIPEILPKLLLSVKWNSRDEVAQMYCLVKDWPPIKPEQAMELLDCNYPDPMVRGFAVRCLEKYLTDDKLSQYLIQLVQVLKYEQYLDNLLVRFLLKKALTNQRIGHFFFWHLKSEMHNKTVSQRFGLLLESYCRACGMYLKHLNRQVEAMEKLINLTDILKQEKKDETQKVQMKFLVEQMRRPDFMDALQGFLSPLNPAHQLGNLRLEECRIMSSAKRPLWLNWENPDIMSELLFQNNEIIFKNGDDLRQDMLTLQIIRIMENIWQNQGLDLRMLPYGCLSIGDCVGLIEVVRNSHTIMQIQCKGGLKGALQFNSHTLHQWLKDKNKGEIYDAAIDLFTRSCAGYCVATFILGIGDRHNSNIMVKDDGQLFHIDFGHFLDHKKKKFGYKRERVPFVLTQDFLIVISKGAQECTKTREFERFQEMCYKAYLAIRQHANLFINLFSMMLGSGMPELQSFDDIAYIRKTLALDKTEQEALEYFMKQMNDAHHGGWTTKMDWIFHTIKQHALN
T1 sequence (P27986 whole entry partner): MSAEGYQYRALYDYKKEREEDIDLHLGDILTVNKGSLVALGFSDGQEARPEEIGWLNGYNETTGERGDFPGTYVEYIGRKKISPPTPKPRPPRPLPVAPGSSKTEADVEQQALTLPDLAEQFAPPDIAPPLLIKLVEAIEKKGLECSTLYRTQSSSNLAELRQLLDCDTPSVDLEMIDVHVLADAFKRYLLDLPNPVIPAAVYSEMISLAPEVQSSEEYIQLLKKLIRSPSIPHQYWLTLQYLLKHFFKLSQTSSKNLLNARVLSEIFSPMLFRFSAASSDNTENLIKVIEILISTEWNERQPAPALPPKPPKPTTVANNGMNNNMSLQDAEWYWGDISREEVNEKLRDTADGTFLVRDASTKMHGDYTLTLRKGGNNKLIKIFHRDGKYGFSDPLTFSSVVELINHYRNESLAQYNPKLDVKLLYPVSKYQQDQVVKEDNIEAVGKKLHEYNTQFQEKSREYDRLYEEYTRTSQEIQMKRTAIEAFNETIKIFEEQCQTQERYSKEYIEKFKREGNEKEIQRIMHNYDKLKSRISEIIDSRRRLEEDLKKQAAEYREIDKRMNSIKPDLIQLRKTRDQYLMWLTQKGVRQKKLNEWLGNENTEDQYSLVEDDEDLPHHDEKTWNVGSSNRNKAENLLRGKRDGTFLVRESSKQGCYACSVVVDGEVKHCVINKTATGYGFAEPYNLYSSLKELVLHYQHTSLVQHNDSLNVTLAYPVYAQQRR

Turning to `COc1cc(-c2ccccc2)c(S(=O)(=O)N2CCC(F)(C(=O)NC/C=C/S(C)(=O)=O)CC2)cn1` [Compound 191, (E)-4-fluoro-1-((6-methoxy-4-phenylpyridin-3-yl)sulfonyl)-N-(3-(methylsulfonyl)allyl)piperidine-4-carboxamide], the IC50 is 950 nM. That is a sub-micromolar value.
To `C[C@H](/C=C\S(C)(=O)=O)NC(=O)C1(F)CCN(S(=O)(=O)c2ccc(C3CN(C(=O)OC(C)(C)C)C3)cc2-c2ccccc2Cl)CC1` [Compound 99, tert-butyl (R,Z)-3-(2′-chloro-6-((4-fluoro-4-((4-(methylsulfonyl)but-3-en-2-yl)carbamoyl)piperidin-1-yl)sulfonyl)-[1,1′-biphenyl]-3-yl)azetidine-1-carboxylate] belongs 830 nM; to `COc1cccc(-c2cc(N(C)C)ccc2S(=O)(=O)N2CCC(F)(C(=O)NC/C=C/S(C)(=O)=O)CC2)c1` [Compound 96, (E)-1-((5-(dimethylamino)-3′-methoxy-[1,1′-biphenyl]-2-yl)sulfonyl)-4-fluoro-N-(3-(methylsulfonyl)allyl)piperidine-4-carboxamide], 410 nM; to `COc1cccc(-c2cc(Cl)ncc2S(=O)(=O)N2CCC(F)(C(=O)N[C@@H](C)/C=C\S(C)(=O)=O)CC2)c1` [Compound 270, (S,Z)-1-((6-chloro-4-(3-methoxyphenyl)pyridin-3-yl)sulfonyl)-4-fluoro-N-(4-(methylsulfonyl)but-3-en-2-yl)piperidine-4-carboxamide], 550 nM.
To `Cc1ccccc1-c1cc(N2CCCC2)ccc1S(=O)(=O)N1CCC(F)(C(=O)N[C@H](C)/C=C\S(C)(=O)=O)CC1` [Compound 120, (R,Z)-4-fluoro-1-((2′-methyl-5-(pyrrolidin-1-yl)-[1,1′-biphenyl]-2-yl)sulfonyl)-N-(4-(methylsulfonyl)but-3-en-2-yl)piperidine-4-carboxamide] belongs 250 nM; to `CC#Cc1cccc(-c2cc(Cl)ccc2S(=O)(=O)N2CCC(F)(C(=O)NC/C=C/S(C)(=O)=O)CC2)c1` [Compound 46, (E)-1-((5-chloro-3′-(prop-1-yn-1-yl)-[1,1′-biphenyl]-2-yl)sulfonyl)-4-fluoro-N-(3-(methylsulfonyl)allyl)piperidine-4-carboxamide], 460 nM; to `COc1ccc(S(=O)(=O)N2CCC(F)(C(=O)NC/C=C/S(C)(=O)=O)CC2)c(-c2cccc(Cl)c2)c1` [Compound 41, (E)-1-((3′-chloro-5-methoxy-[1,1′-biphenyl]-2-yl)sulfonyl)-4-fluoro-N-(3-(methylsulfonyl)allyl)piperidine-4-carboxamide], 290 nM.
To `COc1cccc(-c2cc(C)ccc2S(=O)(=O)N2CCC(F)(C(=O)NC/C=C/S(C)(=O)=O)CC2)c1` [Compound 42, (E)-4-fluoro-1-((3′-methoxy-5-methyl-[1,1′-biphenyl]-2-yl)sulfonyl)-N-(3-(methylsulfonyl)allyl)piperidine-4-carboxamide] belongs 624 nM.
Regarding `COc1cccc(-c2cc(Cl)cnc2S(=O)(=O)N2CCC(F)(C(=O)N[C@@H](C)/C=C\S(C)(=O)=O)CC2)c1` [Compound 200, (S,Z)-1-((5-chloro-3-(3-methoxyphenyl)pyridin-2-yl)sulfonyl)-4-fluoro-N-(4-(methylsulfonyl)but-3-en-2-yl)piperidine-4-carboxamide], inhibition was half-maximal at 788 nM (IC50). This IC50 and that of the compound before are within 1.5-fold of each other.
To `COc1ccc(S(=O)(=O)N2CCC(F)(C(=O)NC/C=C/S(C)(=O)=O)CC2)c(-c2ccccc2)c1` [Compound 38, (E)-4-fluoro-1-((5-methoxy-[1,1′-biphenyl]-2-yl)sulfonyl)-N-(3-(methylsulfonyl)allyl)piperidine-4-carboxamide] belongs 644 nM; to `C[C@H](/C=C\S(C)(=O)=O)NC(=O)C1(F)CCN(S(=O)(=O)c2ccc(N3CCN(C(=O)OC(C)(C)C)CC3)cc2-c2ccccc2Cl)CC1` [Compound 118, tert-butyl (R,Z)-4-(2′-chloro-6-((4-fluoro-4-((4-(methylsulfonyl)but-3-en-2-yl)carbamoyl)piperidin-1-yl)sulfonyl)-[1,1′-biphenyl]-3-yl)piperazine-1-carboxylate], 430 nM.
The compound `CCc1ccc(S(=O)(=O)N2CCC(F)(C(=O)N[C@H](C)/C=C\S(C)(=O)=O)CC2)c(-c2ccccc2C)c1` [Compound 113, (R,Z)-1-((5-ethyl-2′-methyl-[1,1′-biphenyl]-2-yl)sulfonyl)-4-fluoro-N-(4-(methylsulfonyl)but-3-en-2-yl)piperidine-4-carboxamide] yielded an IC50 of 170 nM.
Turning to `COc1ccc(S(=O)(=O)N2CCC(F)(C(=O)NC/C=C/S(C)(=O)=O)CC2)c(-c2ccccc2C)c1` [Compound 44, (E)-4-fluoro-1-((5-methoxy-2′-methyl-[1,1′-biphenyl]-2-yl)sulfonyl)-N-(3-(methylsulfonyl)allyl)piperidine-4-carboxamide], the midpoint of inhibition, the IC50, lay at 313 nM.
To `CC[C@H](/C=C\S(C)(=O)=O)NC(=O)C1(F)CCN(S(=O)(=O)c2ccc(N(C)C)cc2-c2ccccc2Cl)CC1` [Compound 85, (R,Z)-1-((2′-chloro-5-(dimethylamino)-[1,1′-biphenyl]-2-yl)sulfonyl)-4-fluoro-N-(1-(methylsulfonyl)pent-1-en-3-yl)piperidine-4-carboxamide] belongs 930 nM.
To `C[C@H](/C=C\S(C)(=O)=O)NC(=O)C1(F)CCN(S(=O)(=O)c2ccc(OC3CC3)cc2-c2ccccc2Cl)CC1` [Compound 101, (R,Z)-1-((2′-chloro-5-cyclopropoxy-[1,1′-biphenyl]-2-yl)sulfonyl)-4-fluoro-N-(4-(methylsulfonyl)but-3-en-2-yl)piperidine-4-carboxamide] belongs 860 nM; to `C[C@@H](/C=C\S(C)(=O)=O)NC(=O)C1(F)CCN(S(=O)(=O)c2ccc(Cl)cc2-c2cccc(Oc3ccccc3)c2)CC1` [Compound 267, (S,Z)-1-((5-chloro-3′-phenoxy-[1,1′-biphenyl]-2-yl)sulfonyl)-4-fluoro-N-(4-(methylsulfonyl)but-3-en-2-yl)piperidine-4-carboxamide], 703 nM.
To `COc1cc(-c2ccccc2C)c(S(=O)(=O)N2CCC(F)(C(=O)NC/C=C/S(C)(=O)=O)CC2)cn1` [Compound 189, (E)-4-fluoro-1-((6-methoxy-4-(o-tolyl)pyridin-3-yl)sulfonyl)-N-(3-(methylsulfonyl)allyl)piperidine-4-carboxamide] belongs 263 nM; to `Cc1ccccc1-c1cc(OC(C)C)ccc1S(=O)(=O)N1CCC(F)(C(=O)N[C@H](C)/C=C\S(C)(=O)=O)CC1` [Compound 103, (R,Z)-4-fluoro-1-((5-isopropoxy-2′-methyl-[1,1′-biphenyl]-2-yl)sulfonyl)-N-(4-(methylsulfonyl)but-3-en-2-yl)piperidine-4-carboxamide], 830 nM; to `C[C@H](/C=C\S(C)(=O)=O)NC(=O)C1(F)CCN(C(=O)[C@@H]2CN(C(=O)OC(C)(C)C)C[C@@H]2c2ccccc2Cl)CC1` (racemic) [Compound 158, tert-butyl(3RS,4RS)-3-(2-chlorophenyl)-4-(4-fluoro-4-(((R,Z)-4-(methylsulfonyl)but-3-en-2-yl)carbamoyl)piperidine-1-carbonyl)pyrrolidine-1-carboxylate], 895 nM.
